Reference: ChEMBL document CHEMBL1127336, “P1 aspartate-based peptide alpha-((2,6-dichlorobenzoyl)oxy)methyl ketones as potent time-dependent inhibitors of interleukin-1 beta-converting enzyme” (J Med Chem, 1994)

Experiments:
[1] = biological target: Cathepsin B (Bos taurus) (UniProt P07688); experiment: Compound was evaluated for the ability to inhibit cathepsin B purified from bovine spleen
[2] = Selectivity (ICE:cathepsin) of the compound; 700:1
[3] = biological target: T1, Caspase-1 (Homo sapiens) (UniProt P29466); experiment: Compound was evaluated for the ability to inhibit Interleukin-1-beta-converting enzyme (ICE) purified from THP-1 cells; […]
T1 sequence (whole entry): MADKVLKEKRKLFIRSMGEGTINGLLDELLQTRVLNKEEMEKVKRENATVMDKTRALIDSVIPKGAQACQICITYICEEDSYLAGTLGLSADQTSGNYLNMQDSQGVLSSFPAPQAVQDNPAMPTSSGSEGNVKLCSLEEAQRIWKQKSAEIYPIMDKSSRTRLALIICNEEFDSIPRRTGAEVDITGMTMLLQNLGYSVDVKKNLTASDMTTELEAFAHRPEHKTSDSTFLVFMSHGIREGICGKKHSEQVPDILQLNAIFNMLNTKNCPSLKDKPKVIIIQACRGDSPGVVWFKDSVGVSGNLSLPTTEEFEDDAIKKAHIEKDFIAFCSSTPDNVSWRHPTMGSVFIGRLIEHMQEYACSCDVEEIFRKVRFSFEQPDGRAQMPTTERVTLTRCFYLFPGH

[4] = Selectivity (ICE:cathepsin) of the compound; 108:1
[5] = biological target: T1, Caspase-1 (Homo sapiens); experiment: Compound was evaluated for the ability to inhibit Interleukin-1-beta-converting enzyme (ICE) purified from THP-1 cells

Row | k obs / 1 [1] | Selectivity [2] | k obs / 1 [3] | Selectivity [4] | k obs / 1 [5] | Compound
1 | 2250 M⁻¹ s⁻¹ | – | – | – | – | CC(C)[C@H](NC(=O)OCc1ccccc1)C(=O)N[C@@H](C)C(=O)N[C@@H](CC(=O)O)C(=O)COC(=O)c1c(Cl)cccc1Cl
2 | < 10 M⁻¹ s⁻¹ | > 700 | – | – | – | O=C(O)C[C@H](NC(=O)OCc1ccccc1)C(=O)COC(=O)c1c(Cl)cccc1Cl
3 | – | – | No inhibition | – | – | O=C(O)CC[C@H](NC(=O)OCc1ccccc1)C(=O)COC(=O)c1c(Cl)cccc1Cl
4 | 380 M⁻¹ s⁻¹ | – | – | 108 | 41000 M⁻¹ s⁻¹ | CC(C)C(NC(=O)OCc1ccccc1)C(=O)N[C@@H](CC(=O)O)C(=O)COC(=O)c1c(Cl)cccc1Cl (some centres not stated)
